Data as given in patent US20180370927A1, “MICROBIOCIDAL OXADIAZOLE DERIVATIVES” (SYNGENTA PARTICIPATIONS AG, priority 2015, published 2018).

How the values were obtained:
[1] = test system: Puccinia recondita f. Sp. Tritici; assay: Puccinia recondita f. sp. tritici / wheat / leaf disc curative (brown rust); assay type: in vivo; conditions: foliar, 200 ppm in the applied formulation, wheat leaf segments, curative (applied 1 day after inoculation), assessed 6 to 8 days after application, read-out: disease control compared to untreated control leaf disks
Method in brief: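 Wheat cv. Kanzler leaf segments on agar were inoculated with spores, kept dark at 19° C, 75% RH, then sprayed with diluted formulated compound 1 day after inoculation (curative). Incubation continued at 19° C, 75% RH, 12 h light/12 h dark, with percent disease control versus untreated scored 6 to 8 days after application.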

Phakopsora pachyrhizi = Phakopsora pachyrhizi / soybean / leaf disc preventative (Asian soybean rust); assay type: in vivo; conditions: foliar, 200 ppm in the applied formulation, soybean leaf disks, assessed 12 to 14 days after application, read-out: disease control compared to untreated control leaf disks
Procedure: Leaf disks or leaf segments of various plant species are cut from plants grown in a greenhouse. The cut leaf disks or segments are placed in multiwell plates (24-well format) onto water agar. The leaf disks are sprayed with a test solution before (preventative) or after (curative) inoculation. Compounds to be tested are prepared as DMSO solutions (max. 10 mg/mL) which are diluted to the appropriate concentration with 0.025% Tween20 just before spraying. The inoculated leaf disks or segments are incubated under defined conditions (temperature, relative humidity, light, etc.) according to the respective test system. A single evaluation of disease level is carried out 3 to 14 days after inoculation, depending on the pathosystem. Percent disease control relative to the untreated check leaf disks or segments is then calculated.
Example 3: Fungicidal Activity Against Phakopsora pachyrhizi/Soybean/Leaf Disc Preventative (Asian Soybean Rust)
Soybean leaf disks are placed on water agar in multiwell plates (24-well format) and sprayed with the formulated test compound diluted in water. One day after application leaf discs are inoculated by spraying a spore suspension on the lower leaf surface. After an incubation period in a climate cabinet of 24-36 hours in darkness at 20° C. and 75% relative humidity leaf disc are kept at 20° C. with 12 hours light/day and 75% relative humidity. The activity of a compound is assessed as percent disease control compared to untreated when an appropriate level of disease damage appears in untreated check leaf disks (12 to 14 days after application).
The following compounds at 200 ppm in the applied formulation give at least 80% disease control in this test when compared to untreated control leaf disks under the same conditions, which show extensive disease development.

[2] = test system: Glomerella lacenarium (Colletotrichum lacenarium); assay: Glomerella lacenarium (Colletotrichum lacenarium) liquid culture / cucumber / preventative (anthracnose); assay type: cell-based; conditions: 20 ppm in the applied formulation, liquid culture in PDB, 24° C., 3 to 4 days after application, read-out: disease control (inhibition of growth, photometric) compared to untreated control
Method in brief: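 Cryostored conidia in potato dextrose broth added to DMSO compound solution in microtiter plates, incubated at 24° C. Growth inhibition read photometrically 3 to 4 days after application, as percent control versus untreated check; compounds tested at 20 ppm.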

[3] = test system: Puccinia recondita f. Sp. Tritici; assay: Puccinia recondita f. sp. tritici / wheat / leaf disc preventative (brown rust); assay type: in vivo; conditions: foliar, 200 ppm in the applied formulation, wheat leaf segments, preventative, assessed 7 to 9 days after application, read-out: disease control compared to untreated control leaf disks
Method in brief: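 Wheat cv. Kanzler leaf segments on agar sprayed with formulated compound in water, inoculated with rust spores 1 day later. Incubated at 19° C, 75% rh, 12 h light/12 h dark; percent disease control versus untreated scored 7 to 9 days after application; tested at 200 ppm.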

CN(C)C(=O)C(=O)NCc1c(F)cc(-c2noc(C(F)(F)F)n2)cc1F [Compound 4.98, N-[[2,6-difluoro-4-[5-(trifluoromethyl)-1,2,4-oxadiazol-3-yl]phenyl]methyl]-N′,N′-dimethyl-oxamide]
≥ 80%: pest or weed control at 200 ppm [1] | pest or weed control at 200 ppm (Phakopsora pachyrhizi) | inhibition at 20 ppm [2] | pest or weed control at 200 ppm [3]

CCN(CC)C(=O)C(=O)N(Cc1ccc(-c2noc(C(F)(F)F)n2)cc1)OC [Compound 4.69, N,N-diethyl-N′-methoxy-N′-[[4-[5-(trifluoromethyl)-1,2,4-oxadiazol-3-yl]phenyl]methyl] oxamide]
≥ 80%: pest or weed control at 200 ppm [1] | pest or weed control at 200 ppm (Phakopsora pachyrhizi) | inhibition at 20 ppm [2] | pest or weed control at 200 ppm [3]

CC(C)(C)NC(=O)C(=O)NCc1ccc(-c2noc(C(F)(F)F)n2)cc1 [Compound 4.56, N′-tert-butyl-N-[[4-[5-(trifluoromethyl)-1,2,4-oxadiazol-3-yl]phenyl]methyl] oxamide]
≥ 80%: pest or weed control at 200 ppm [1] | pest or weed control at 200 ppm (Phakopsora pachyrhizi) | inhibition at 20 ppm [2] | pest or weed control at 200 ppm [3]

NC(=O)C(=O)N(Cc1ccc(-c2noc(C(F)(F)F)n2)cc1)C1COC1 [Compound 4.90, N′-(oxetan-3-yl)-N′-[[4-[5-(trifluoromethyl)-1,2,4-oxadiazol-3-yl]phenyl]methyl] oxamide]
≥ 80%: pest or weed control at 200 ppm [1] | pest or weed control at 200 ppm (Phakopsora pachyrhizi) | inhibition at 20 ppm [2] | pest or weed control at 200 ppm [3]

O=C(NCc1ccc(-c2noc(C(F)(F)F)n2)c(F)c1)C(=O)c1ccco1 [Compound 1.79, N-[[3-fluoro-4-[5-(trifluoromethyl)-1,2,4-oxadiazol-3-yl]phenyl]methyl]-2-(2-furyl)-2-oxo-acetamide]
≥ 80%: pest or weed control at 200 ppm [1] | pest or weed control at 200 ppm (Phakopsora pachyrhizi) | inhibition at 20 ppm [2] | pest or weed control at 200 ppm [3]

CON(C)C(=O)C(=O)N(C)Cc1ccc(-c2noc(C(F)(F)F)n2)cc1 [Compound 4.104, N′-methoxy-N,N′-dimethyl-N-[[4-[5-- (trifluoromethyl)-1,2,4-oxadiazol-3-yl]phenyl]methyl] oxamide]
≥ 80%: pest or weed control at 200 ppm [1] | pest or weed control at 200 ppm (Phakopsora pachyrhizi) | inhibition at 20 ppm [2] | pest or weed control at 200 ppm [3]

CN(C)C(=O)C(=O)NCc1ccc(-c2noc(C(F)(F)F)n2)cc1F [Compound 4.92, N-[[2-fluoro-4-[5-(trifluoromethyl)-1,2,4-oxadiazol-3-yl]phenyl]methyl]-N',N'-dimethyl-oxamide]
≥ 80%: pest or weed control at 200 ppm [1] | pest or weed control at 200 ppm (Phakopsora pachyrhizi) | inhibition at 20 ppm [2] | pest or weed control at 200 ppm [3]

C=CCN(Cc1ccc(-c2noc(C(F)(F)F)n2)cc1)C(=O)C(C)=O [Compound 1.16, N-allyl-2-oxo-N-[[4-[5-(trifluoromethyl)-1,2,4-oxadiazol-3-yl]phenyl]methyl]propanamide]
≥ 80%: pest or weed control at 200 ppm [1] | pest or weed control at 200 ppm (Phakopsora pachyrhizi) | inhibition at 20 ppm [2]

O=C(NCc1ccc(-c2noc(C(F)(F)F)n2)c(F)c1F)C(=O)c1cccs1 [Compound 1.48, N-[[2,3-difluoro-4-[5-(trifluoromethyl)-1,2,4-oxadiazol-3-yl]phenyl]methyl]-2-oxo-2-(2-thienyl)acetamide]
≥ 80%: pest or weed control at 200 ppm (Phakopsora pachyrhizi) | inhibition at 20 ppm [2] | pest or weed control at 200 ppm [3]

CCCCON(Cc1ccc(-c2noc(C(F)(F)F)n2)cc1)C(=O)C(N)=O [Compound 4.87, N′-butoxy-N′-[[4-[5-(trifluoromethyl)-1,2,4-oxadiazol-3-yl]phenyl]methyl] oxamide]
≥ 80%: pest or weed control at 200 ppm (Phakopsora pachyrhizi) | inhibition at 20 ppm [2] | pest or weed control at 200 ppm [3]

O=C(NCc1ccc(-c2noc(C(F)(F)F)n2)c(F)c1)C(=O)c1ccccc1 [Compound 1.42, N-[[3-fluoro-4-[5-(trifluoromethyl)-1,2,4-oxadiazol-3-yl]phenyl]methyl]-2-oxo-2-phenyl-acetamide]
≥ 80%: pest or weed control at 200 ppm (Phakopsora pachyrhizi) | inhibition at 20 ppm [2] | pest or weed control at 200 ppm [3]
